These results are taken from US10414754B2, “Indolizine compounds, a process for their preparation and pharmaceutical compositions containing them” (LES LABORATOIRES SERVIER, priority 2013, dated 2019).

Test [1] concerns RS4;11 leukaemia tumour line. As to the kind of experiment: In vitro cytotoxicity (MTT) on RS4;11. Format: cell-based. The note with it: Homo sapiens; RS4;11 cells, 48 hours exposure. As for the experimental part: The cytotoxicity studies were carried out on the RS4;11 leukaemia tumour line.
The cells are distributed onto microplates and exposed to the test compounds for 48 hours.
The cell viability is then quantified by a colorimetric assay, the Microculture Tetrazolium Assay (Cancer Res., 1987, 47, 939-942).

Test [2] has as its target T1, Bcl-2 protein (histag-Bcl-2, UniProtKB P10415) (Homo sapiens, UniProt P10415).
T1 construct: His tag
Kind of test: Inhibition of Bcl-2 by the fluorescence polarisation technique. The format is binding. The note with it: fluorescence polarisation, 2 hours incubation; read-out: IC50 (nM) Bcl-2 FP. As for the experimental part: The fluorescence polarisation tests were carried out on microplates (384 wells). The Bcl-2 protein, labelled (histag-Bcl-2 such that Bcl-2 corresponds to the UniProtKB® primary accession number: P10415), at a final concentration of 2.50×10^−8 M, is mixed with a fluorescent peptide (Fluorescein-[…]), at a final concentration of 1.00×10^−8M in a buffer solution (Hepes 10 mM, NaCl 150 mM, Tween20 0.05%, pH 7.4), in the presence or absence of increasing concentrations of test compounds. After incubation for 2 hours, the fluorescence polarisation is measured.
For orientation: In fluorescence polarisation assays a small probe gives low polarisation when free and higher when bound to something large.

Each structure is given as a SMILES string. Where a name gives a salt, the structure may show the parent alone.

T1 sequence (P10415 whole entry): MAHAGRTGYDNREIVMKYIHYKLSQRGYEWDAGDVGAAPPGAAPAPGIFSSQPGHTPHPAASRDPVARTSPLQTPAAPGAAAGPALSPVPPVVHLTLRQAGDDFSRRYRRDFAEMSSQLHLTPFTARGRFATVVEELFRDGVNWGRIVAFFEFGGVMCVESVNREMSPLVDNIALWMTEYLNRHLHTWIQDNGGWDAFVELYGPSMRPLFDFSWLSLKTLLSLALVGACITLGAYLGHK

`C[C@@H]1Cc2ccccc2CN1C(=O)c1cc2c(cc1-c1cc(C(=O)N(c3ccc(O)cc3)c3cccnc3)c3ccccn13)OCO2` [Example 34, N-(4-Hydroxyphenyl)-3-(6-{[(3R)-3-methyl-3,4-dihydroisoquinolin-2(1H)-yl]carbonyl}-1,3-benzodioxol-5-yl)-N-(pyridin-3-yl)indolizine-1-carboxamide hydrochloride]: the 50% inhibitory concentration (IC50) was determined as 27.3 nM in test [1] and 5.6 nM in test [2].
As to `C[C@@H]1Cc2ccccc2CN1C(=O)c1cc2c(cc1-c1cc(C(=O)N(c3ccc(O)cc3)c3ccc(CCN4CCCC(F)(F)C4)cc3)c3ccccn13)OCO2` [Example 35, N-{4-[2-(3,3-Difluoropiperidin-1-yl)ethyl]phenyl}-N-(4-hydroxyphenyl)-3-(6-{[(3R)-3-methyl-3,4-dihydroisoquinolin-2(1H)-yl]carbonyl}-1,3-benzodioxol-5-yl)indolizine-1-carboxamide hydrochloride], the IC50 in test [1] is 62.2 nM; in test [2] it was 15.1 nM.
With `C[C@@H]1Cc2ccccc2CN1C(=O)c1cc2c(cc1-c1cc(C(=O)N(c3ccc(O)cc3)c3ccc(CCN4CCC(F)(F)C4)cc3)c3ccccn13)OCO2` [Example 36, N-{4-[2-(3,3-Difluoropyrrolidin-1-yl)ethyl]phenyl}-N-(4-hydroxyphenyl)-3-(6-{[(3R)-3-methyl-3,4-dihydroisoquinolin-2(1,H)-yl]carbonyl}-1,3-benzodioxol-5-yl)indolizine-1-carboxamide hydrochloride], the IC50 is 49.7 nM in test [1] and 12.6 nM in test [2].
In the same order, the values of `NCC[C@@H]1Cc2ccccc2CN1C(=O)c1cc2c(cc1-c1cc(C(=O)N(c3ccccc3)c3ccc(O)cc3)c3n1CCCC3)OCO2` [Example 37, 3-(6-{[(3S)-3-(2-Aminoethyl)-3,4-dihydroisoquinolin-2(1H)-yl]carbonyl}-1,3-benzodioxol-5-yl)-N-(4-hydroxyphenyl)-N-phenyl-5,6,7,8-tetrahydroindolizine-1-carboxamide hydrochloride] are 24.7 nM and 2.9 nM.
In the same order, the values of `O=C(c1cc(-c2cc3c(cc2C(=O)N2Cc4ccccc4C[C@H]2CCCN2CCOCC2)OCO3)n2c1CCCC2)N(c1ccccc1)c1ccc(O)cc1` [Example 38, N-(4-Hydroxyphenyl)-3-(6-{[(3R)-3-[3-(morpholin-4-yl)propyl]-3,4-dihydroisoquinolin-2(1H)-yl]carbonyl}-1,3-benzodioxol-5-yl)-N-phenyl-5,6,7,8-tetrahydroindolizine-1-carboxamide hydrochloride] are 9.52 nM and 4.6 nM.
Regarding `Cc1cc(N(C(=O)c2cc(-c3cc4c(cc3C(=O)N3Cc5ccccc5C[C@H]3C)OCO4)n3ccccc23)c2ccc(O)cc2)cc(C)n1` [Example 39, N-(2,6-Dimethylpyridin-4-yl)-N-(4-hydroxyphenyl)-3-(6-{[(3R)-3-methyl-3,4-dihydroisoquinolin-2(1H)-yl]carbonyl}-1,3-benzodioxol-5-yl)indolizine-1-carboxamide hydrochloride], the IC50 came to 26.3 nM in test [1] and 4.6 nM in test [2].
Turning to `C[C@@H]1Cc2ccccc2CN1C(=O)c1cc2c(cc1-c1cc(C(=O)N(c3ccccc3)c3ccc(O)cc3)c3n1CCCC3)OCO2` [Example 40, N-(4-Hydroxyphenyl)-3-(6-{[(3R)-3-methyl-3,4-dihydroisoquinolin-2(1H)-yl]carbonyl}-1,3-benzodioxol-5-yl)-N-phenyl-5,6,7,8-tetrahydroindolizine-1-carboxamide], the IC50 in test [1] worked out at 49 nM; in test [2], 6 nM.
In the same order, the values of `O=C(c1cc(-c2cc3c(cc2C(=O)N2Cc4ccccc4C[C@H]2CCN2CCCC(F)(F)C2)OCO3)n2c1CCCC2)N(c1ccccc1)c1ccc(O)cc1` [Example 41, 3-(6-{[(3S)-3-[2-(3,3-Difluoropiperidin-1-yl)ethyl]-3,4-dihydroiso-quinolin-2(1H)-yl]carbonyl}-1,3-benzodioxol-5-yl)-N-(4-hydroxyphenyl)-N-phenyl-5,6,7,8-tetrahydroindolizine-1-carboxamide hydrochloride] are 294 nM and 41.5 nM.

A word on the IC50: it is the concentration that inhibits the measured activity by half.
